This note sets out measurements from ChEMBL document CHEMBL5052823, “Prc1 inhibitors and methods of treatment therewith” (2020).

For experiment [1], the species on record is Homo sapiens. Nature of the experiment: Inhibition of RING1B-PCGF1 (unknown origin) activity at 0.4 to 25 uM relative to control. To be noted: dose 0.4-25 µM.
The species named for experiment [2] is Homo sapiens. Nature of the experiment: Inhibition of BRCA1-BARD1 (unknown origin) activity at 12.2 to 50 uM relative to control. To be noted: dose 12.2-50 µM.
For experiment [3], the species on record is Homo sapiens. Nature of the experiment: Inhibition of TRIM37 (unknown origin) activity at 12.2 to 50 uM relative to control. To be noted: dose 12.2-50 µM.
The species entered for experiment [4] is Homo sapiens. Briefly: Inhibition of RING1B-BMI1 (unknown origin) interaction with nucleosome at 0.8 to 12.5 uM measured by EMSA assay relative to control. The following applies: dose 0.8-12.5 µM. On the technique in general: A gel shift assay detects complexes by their altered migration in electrophoresis.
Experiment [5] has as its system K562. Briefly: Inhibition of PRC1 in human K562 cells. In kind it is cell-based.
The test system of experiment [6] is K562. Briefly: Inhibition of RING1B-BMI1 H2Aub activity in human K562 cells at 6.2 to 25 uM relative to control. It counts as cell-based. To be noted: dose 6.2-25 µM.
The next experiment deals with T cell. Nature of the experiment: Inhibition of RING1B-BMI1 H2Aub activity in human TEX cells at 6 to 25 uM relative to control. In kind it is cell-based. The following applies: dose 6-25 µM.
The next experiment relates to T-cell line. Nature of the experiment: Induction on human TEX cells differentiation assessed as reduction in CD34 surface expression at 6 to 25 uM relative to control. In kind it is functional, cell-based. The following applies: dose 6-25 µM.
The test system of experiment [7] is M9-ENL1. Briefly: Inhibition of colony formation in human M9-ENL1. In kind it is functional, cell-based.
The test system of experiment [8] is M9-ENL1. Nature of the experiment: Antitumour activity against human M9-ENL1 cells transplanted in mouse assessed as decrease in leukemia development. In kind it is functional, cell-based.
The subject of experiment [9] is M9-ENL1. Nature of the experiment: Antitumour activity against human M9-ENL1 cells transplanted in mouse assessed as decrease in engraftment. It counts as functional, cell-based.

Active and inactive are the calls of the source. No cut-off for these calls is given here.

In the case of `CC(C)c1c(-c2cccc3[nH]ccc23)[nH]c(C(=O)O)c1-c1c(Cl)ccc2[nH]ccc12`, the inhibition entry in the experiment filed under Homo sapiens [1], in the experiment listed under Homo sapiens [4], in the experiment with K562 [5], with K562 [6], in the experiment with T cell and with M9-ENL1 [7] was “Active” in each case. Besides, the inhibition result in the experiment filed under Homo sapiens [2] and in the experiment filed under Homo sapiens [3] was “inactive” in each case. Further, the result in the experiment on T-cell line, in the experiment on M9-ENL1 [8] and with M9-ENL1 [9] was Active.
Consider `CCc1c(-c2cccc3c2ccn3CCO)[nH]c(C(=O)O)c1-c1ccc(OC)cc1Cl`, for which, in the experiment on T-cell line, the result was inactive.
